US10798942B2, “Abiotic stress tolerance” (SYNGENTA PARTICIPATIONS AG, priority 2016, dated 2020)

Tested on: rice plants
Assay: Field trials 2012-2015: tolerance of rice plants to heat stress (eleven trials)
Format: in vivo, Oryza sativa L.
Experimental: Field trials were setup during the hot season in India to test the effect of treatment with the compound of formula (Ia) on tolerance of rice plants to heat stress.
Trials were conducted in 2012, 2013, 2014, and 2015 in the Tamil Nadu rice production area (India) at the following sites: Kelamoor (lat. 12.42, long. 79.81), Kokkur (lat. 11.02, long. 79.32), Nachinargudi (lat. 11.01, long. 79.3), Velamoor (lat. 12.41, long. 79.8), Kumbakonam (lat. 10.97, long. 79.42) and Ramapuram (lat. 12.43, long. 79.83). The test sites had similar soil chemical properties, with an average soil pH of 6.6.
Rice (Oryza sativa L.) of the local varieties ADT43, ADT45 and NK5251 were mechanically transplanted at four plants per hill with a plant spacing of 16 cm and a row spacing of 30 cm. All trials were performed in good level of water management. Fertilizer was applied in accordance with the best local practice across the trial area.
Commercial treated seeds (no neonicotinoids as seed treatments) were used. Weed control was according to the best local practice in order to provide excellent weed control. Foliar fungicides and insecticides were applied according to common practice (no products that contain neonicotinoids or strobilurins).
The trial design was a randomized bloc design. Plot size was 40 m^2 (4 m width [12 rows] by 10 m row length). Each trial had four replicates. In total, eleven trials were conducted.
The compound of formula (Ia) was applied at a rate of 10 g ai/ha with small-plot hand-held boom sprayer. Application of the compound was as broadcast foliar spray in close proximity to leaf/canopy surface (25-40 cm distance from the crop). The used spray volumes were between 250 L/ha and 500 L/ha. Application was done either at panicle initiation (BBCH 30), at panicle formation (BBCH 32), at spikelet differentiation (BBCH 35), at meiosis (BBCH 39) or at heading (BBCH 51). In some experiments, the compound was applied twice (2×10 g ai/ha) at consecutive growth stages (i.e., BBCH 30+32, BBCH 32+35, BBCH 35+39, and BBCH 39+51).
Temperature was recorded nearby the trial sites. During and up to 14 days after the critical growth stages (i.e. from panicle initiation until heading) the mean daily minimum temperature was 25.1° C. (in the range of 22.6° C. to 27.1° C.) and the mean daily maximum temperature was 35.5° C. (in the range of 29.0 to 38.9° C.).
Tolerance to heat stress was assessed by measuring the following yield components: number of panicles per area, number of grains per panicle, percentage of ripened (filled) grains, number of tillers per area, percentage of productive tillers, grain yield per area at 14% moisture and thousand grain weight (TGVV).
The data in Tables 1 to 3 represent averages of the results from all eleven independent field trials, expressed as a percentage compared to the untreated control. The percentage increase or decrease was calculated for each trial relative to the untreated control for that trial, prior to calculating the mean percentage change across all 11 trials.

[1] = BBCH 30 at application, 10 g ai/ha foliar spray, mean of 11 trials, mean daily min 25.1° C., max 35.5° C.
[2] = BBCH 32 at application, 10 g ai/ha foliar spray, mean of 11 trials, mean daily min 25.1° C., max 35.5° C.
[3] = BBCH 35 at application, 10 g ai/ha foliar spray, mean of 11 trials, mean daily min 25.1° C., max 35.5° C.
[4] = BBCH 39 at application, 10 g ai/ha foliar spray, mean of 11 trials, mean daily min 25.1° C., max 35.5° C.
[5] = BBCH 51 at application, 10 g ai/ha foliar spray, mean of 11 trials, mean daily min 25.1° C., max 35.5° C.
[6] = maximum air temperature 35.1-36 ° C. during five days after application, applied between BBCH 30 and BBCH 51, 10 g ai/ha
[7] = maximum air temperature 36.1-37 ° C. during five days after application, applied between BBCH 30 and BBCH 51, 10 g ai/ha
[8] = maximum air temperature >37 ° C. during five days after application, applied between BBCH 30 and BBCH 51, 10 g ai/ha
[9] = maximum air temperature ≤35 ° C. during five days after application, applied between BBCH 30 and BBCH 51, 10 g ai/ha

COc1cccc(Nc2nc(F)nc3[nH]cnc23)c1 [formula (Ia)]
Empty spikelets (% of UTC) [1]: −7.5 % of UTC | TGW (% of UTC), thousand grain weight [1]: +2.5 % of UTC | Grain yield (% of UTC) (BBCH 30 at application, 10 g ai/ha foliar spray, mean of 11 trials, mean daily min 25.1° C., max 35.5° C. during 14 days after application): +6.0 % of UTC | grain yield (as percent change compared to untreated controls) (BBCH 30 at application, maximum air temperature >36° C. during five days after application, 10 g ai/ha): +7.5% | grain yield (as percent change compared to untreated controls) (BBCH 30 at application, maximum air temperature ≤36° C. during five days after application, 10 g ai/ha): +1.6% | Empty spikelets (% of UTC) [2]: −9.3 % of UTC | Grain yield (% of UTC) [2]: +7.4 % of UTC | TGW (% of UTC), thousand grain weight [2]: +2.2 % of UTC | grain yield (as percent change compared to untreated controls) (BBCH 32 at application, maximum air temperature >36° C. during five days after application, 10 g ai/ha): +9.0% | grain yield (as percent change compared to untreated controls) (BBCH 32 at application, maximum air temperature ≤36° C. during five days after application, 10 g ai/ha): +0.7% | Empty spikelets (% of UTC) [3]: −3.8 % of UTC | Grain yield (% of UTC) [3]: +4.7 % of UTC | TGW (% of UTC), thousand grain weight [3]: +1.8 % of UTC | grain yield (as percent change compared to untreated controls) (BBCH 35 at application, maximum air temperature >36° C. during five days after application, 10 g ai/ha): +5.4% | grain yield (as percent change compared to untreated controls) (BBCH 35 at application, maximum air temperature ≤36° C. during five days after application, 10 g ai/ha): +1.8% | Empty spikelets (% of UTC) [4]: −6.6 % of UTC | Grain yield (% of UTC) [4]: +4.9 % of UTC | TGW (% of UTC), thousand grain weight [4]: +1.6 % of UTC | grain yield (as percent change compared to untreated controls) (BBCH 39 at application, maximum air temperature >36° C. during five days after application, 10 g ai/ha): +5.1% | grain yield (as percent change compared to untreated controls) (BBCH 39 at application, maximum air temperature ≤36° C. during five days after application, 10 g ai/ha): +2.6% | Empty spikelets (% of UTC) [5]: −3.5 % of UTC | Grain yield (% of UTC) [5]: +2.8 % of UTC | TGW (% of UTC), thousand grain weight [5]: +2.0 % of UTC | grain yield (as percent change compared to untreated controls) (BBCH 51 at application, maximum air temperature >36° C. during five days after application, 10 g ai/ha): +3.6% | grain yield (as percent change compared to untreated controls) (BBCH 51 at application, maximum air temperature ≤36° C. during five days after application, 10 g ai/ha): −0.7% | grain yield, effect in words (applied between BBCH 30 (panicle initiation) and BBCH 51 (heading)): an increase of grain yield was achieved | effect of treatment on rice grain yield, in words (daily maximum temperature above 36° C. at least one day after application but within 5 days after application): clear beneficial effect | Grain yield (% of UTC) [6]: +1.1 % of UTC | TGW (% of UTC) [6]: +2.3 % of UTC | Grain yield (% of UTC) [7]: +5.5 % of UTC | TGW (% of UTC) [7]: +2.2 % of UTC | Grain yield (% of UTC) [8]: +6.6 % of UTC | TGW (% of UTC) [8]: +1.8 % of UTC | Grain yield (% of UTC) [9]: +0.9 % of UTC | TGW (% of UTC) [9]: +1.4 % of UTC | heat stress protection, in words (plants at growth stages from panicle initiation (BBCH 30) to heading (BBCH 51) at the time of treatment): heat stress protection was achieved
